According to BindingDB's records for doi:10.1016/j.bmcl.2004.09.058 (Schering-Plough Research Institute, 2004):
pKi: −log10 of the molar value.

biological target: Genome polyprotein (Hepatitis C virus genotype 1a (isolate H77), UniProt P27958); assay: Continuous Spectrophotometric Assay; conditions: pH 6.5; 30 °C
Procedure: Proteolytic cleavage of the ester linkage between the Nva (L-norvaline) and the chromophore (PAP) was monitored for change in absorbance at 370 nm. Initial velocities were determined using linear regression and kinetic constants were obtained by fitting the data to the Michaelis-Menten equation.

Sequence of Genome polyprotein (P27958 1027-1657 limits assumed): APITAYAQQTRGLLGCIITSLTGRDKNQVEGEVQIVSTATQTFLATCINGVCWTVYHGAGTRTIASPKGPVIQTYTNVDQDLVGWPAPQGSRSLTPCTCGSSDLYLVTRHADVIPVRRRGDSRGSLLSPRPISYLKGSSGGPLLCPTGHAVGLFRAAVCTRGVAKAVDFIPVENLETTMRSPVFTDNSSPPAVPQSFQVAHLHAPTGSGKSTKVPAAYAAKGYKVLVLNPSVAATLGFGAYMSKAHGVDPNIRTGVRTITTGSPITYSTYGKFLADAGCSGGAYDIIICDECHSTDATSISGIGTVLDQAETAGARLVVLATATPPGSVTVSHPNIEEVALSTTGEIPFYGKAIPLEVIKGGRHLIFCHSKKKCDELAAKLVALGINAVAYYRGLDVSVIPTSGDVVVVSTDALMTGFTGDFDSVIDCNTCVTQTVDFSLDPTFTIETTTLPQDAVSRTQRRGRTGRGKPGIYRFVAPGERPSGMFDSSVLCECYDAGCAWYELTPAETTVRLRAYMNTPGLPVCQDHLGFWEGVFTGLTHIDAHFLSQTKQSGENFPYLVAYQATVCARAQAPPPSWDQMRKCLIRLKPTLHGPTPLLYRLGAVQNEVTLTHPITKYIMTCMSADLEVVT

Row | Compound | pKi
1 | C=CCNC(=O)C(=O)C(CCC)NC(=O)[C@@H]1CN(CC(=O)OCC)C(=O)N1C(=O)[C@@H](NC(=O)[C@@H](NC(=O)[C@H](CCC(=O)O)NC(=O)[C@H](CCC(=O)O)NC(C)=O)C(C)C)C(C)C (stereo partly drawn) [(4S)-4-{[(1S)-3-carboxy-1-{[(1S)-1-{[(2S)-1-[(5S)-3-(2-ethoxy-2-oxoethyl)-2-oxo-5-{[1-oxo-1-(prop-2-en-1-ylcarbamoyl)pentan-2-yl]carbamoyl}imidazolidin-1-yl]-3-methyl-1-oxobutan-2-yl]carbamoyl}-2-methylpropyl]carbamoyl}propyl]carbamoyl}-4-acetamidobutanoic acid] | 5.40
2 | C=CCOC(=O)CNC(=O)C(=O)C(CCC)NC(=O)[C@@H]1CN(Cc2ccc(Cl)c(Cl)c2)C(=O)N1C(=O)[C@@H](NC(=O)[C@@H](NC(=O)[C@H](CCC(=O)OC(C)(C)C)NC(=O)[C@H](CCC(=O)OC(C)(C)C)NC(C)=O)C(C)C)C(C)C (stereo partly drawn) [tert-butyl (4S)-4-{[(1S)-4-(tert-butoxy)-1-{[(1S)-1-{[(2S)-1-[(5S)-3-[(3,4-dichlorophenyl)methyl]-2-oxo-5-[(1-oxo-1-{[2-oxo-2-(prop-2-en-1-yloxy)ethyl]carbamoyl}pentan-2-yl)carbamoyl]imidazolidin-1-yl]-3-methyl-1-oxobutan-2-yl]carbamoyl}-2-methylpropyl]carbamoyl}-4-oxobutyl]carbamoyl}-4-acetamidobutanoate] | < 4.00
3 | C=CCOC(=O)CNC(=O)C(=O)C(CCC)NC(=O)[C@@H]1CN(Cc2ccccc2)C(=O)N1C(=O)[C@@H](NC(=O)[C@@H](NC(=O)[C@H](CCC(=O)OC(C)(C)C)NC(=O)[C@H](CCC(=O)OC(C)(C)C)NC(C)=O)C(C)C)C(C)C (stereo partly drawn) [tert-butyl (4S)-4-{[(1S)-1-{[(1S)-1-{[(2S)-1-[(5S)-3-benzyl-2-oxo-5-[(1-oxo-1-{[2-oxo-2-(prop-2-en-1-yloxy)ethyl]carbamoyl}pentan-2-yl)carbamoyl]imidazolidin-1-yl]-3-methyl-1-oxobutan-2-yl]carbamoyl}-2-methylpropyl]carbamoyl}-4-(tert-butoxy)-4-oxobutyl]carbamoyl}-4-acetamidobutanoate] | < 4.00
4 | C=CCNC(=O)C(=O)C(CCC)NC(=O)[C@@H]1CN(CC(=O)OCC)C(=O)N1C(=O)[C@@H](NC(=O)[C@@H](NC(=O)OCC(C)C)C(C)C)C(C)C (stereo partly drawn) [ethyl 2-[(4S)-3-[(2S)-3-methyl-2-[(2S)-3-methyl-2-{[(2-methylpropoxy)carbonyl]amino}butanamido]butanoyl]-2-oxo-4-{[1-oxo-1-(prop-2-en-1-ylcarbamoyl)pentan-2-yl]carbamoyl}imidazolidin-1-yl]acetate] | 4.11
5 | C=CCOC(=O)CNC(=O)C(=O)C(CCC)NC(=O)[C@@H]1CN(Cc2ccccc2)C(=O)N1C(=O)[C@@H](NC(=O)[C@@H](NC(=O)[C@H](CCC(=O)O)NC(=O)[C@H](CCC(=O)O)NC(C)=O)C(C)C)C(C)C (stereo partly drawn) [(4S)-4-{[(1S)-1-{[(1S)-1-{[(2S)-1-[(5S)-3-benzyl-2-oxo-5-[(1-oxo-1-{[2-oxo-2-(prop-2-en-1-yloxy)ethyl]carbamoyl}pentan-2-yl)carbamoyl]imidazolidin-1-yl]-3-methyl-1-oxobutan-2-yl]carbamoyl}-2-methylpropyl]carbamoyl}-3-carboxypropyl]carbamoyl}-4-acetamidobutanoic acid] | 6.00
6 | C=CCNC(=O)C(=O)C(CCC)NC(=O)[C@@H]1CN(Cc2ccccc2)C(=O)N1C(=O)[C@@H](NC(=O)[C@@H](NC(=O)[C@H](CCC(=O)O)NC(=O)[C@H](CCC(=O)O)NC(C)=O)C(C)C)C(C)C (stereo partly drawn) [(4S)-4-{[(1S)-1-{[(1S)-1-{[(2S)-1-[(5S)-3-benzyl-2-oxo-5-{[1-oxo-1-(prop-2-en-1-ylcarbamoyl)pentan-2-yl]carbamoyl}imidazolidin-1-yl]-3-methyl-1-oxobutan-2-yl]carbamoyl}-2-methylpropyl]carbamoyl}-3-carboxypropyl]carbamoyl}-4-acetamidobutanoic acid] | 6.00
7 | C=CCNC(=O)C(=O)C(CCC)NC(=O)[C@@H]1CNC(=O)N1C(=O)[C@@H](NC(=O)[C@@H](NC(=O)[C@H](CCC(=O)OC(C)(C)C)NC(=O)[C@H](CCC(=O)OC(C)(C)C)NC(C)=O)C(C)C)C(C)C (stereo partly drawn) [tert-butyl (4S)-4-{[(1S)-4-(tert-butoxy)-1-{[(1S)-2-methyl-1-{[(2S)-3-methyl-1-oxo-1-[(5S)-2-oxo-5-{[1-oxo-1-(prop-2-en-1-ylcarbamoyl)pentan-2-yl]carbamoyl}imidazolidin-1-yl]butan-2-yl]carbamoyl}propyl]carbamoyl}-4-oxobutyl]carbamoyl}-4-acetamidobutanoate] | 4.16
8 | C=CCOC(=O)CNC(=O)C(=O)C(CCC)NC(=O)[C@@H]1CN(Cc2ccc(Cl)c(Cl)c2)C(=O)N1C(=O)[C@@H](NC(=O)[C@@H](NC(=O)[C@H](CCC(=O)O)NC(=O)[C@H](CCC(=O)O)NC(C)=O)C(C)C)C(C)C (stereo partly drawn) [(4S)-4-{[(1S)-3-carboxy-1-{[(1S)-1-{[(2S)-1-[(5S)-3-[(3,4-dichlorophenyl)methyl]-2-oxo-5-[(1-oxo-1-{[2-oxo-2-(prop-2-en-1-yloxy)ethyl]carbamoyl}pentan-2-yl)carbamoyl]imidazolidin-1-yl]-3-methyl-1-oxobutan-2-yl]carbamoyl}-2-methylpropyl]carbamoyl}propyl]carbamoyl}-4-acetamidobutanoic acid] | 6.51
9 | C=CCNC(=O)C(=O)C(CCC)NC(=O)[C@@H]1CNC(=O)N1C(=O)[C@@H](NC(=O)[C@@H](NC(=O)[C@H](CCC(=O)O)NC(=O)[C@H](CCC(=O)O)NC(C)=O)C(C)C)C(C)C (stereo partly drawn) [(4S)-4-{[(1S)-3-carboxy-1-{[(1S)-2-methyl-1-{[(2S)-3-methyl-1-oxo-1-[(5S)-2-oxo-5-{[1-oxo-1-(prop-2-en-1-ylcarbamoyl)pentan-2-yl]carbamoyl}imidazolidin-1-yl]butan-2-yl]carbamoyl}propyl]carbamoyl}propyl]carbamoyl}-4-acetamidobutanoic acid] | 4.34
10 | C=CCNC(=O)C(=O)C(CCC)NC(=O)[C@@H]1CN(CC(=O)OCC)C(=O)N1C(=O)[C@@H](NC(=O)[C@@H](NC(=O)[C@H](CCC(=O)OC(C)(C)C)NC(=O)[C@H](CCC(=O)OC(C)(C)C)NC(C)=O)C(C)C)C(C)C (stereo partly drawn) [tert-butyl (4S)-4-{[(1S)-4-(tert-butoxy)-1-{[(1S)-1-{[(2S)-1-[(5S)-3-(2-ethoxy-2-oxoethyl)-2-oxo-5-{[1-oxo-1-(prop-2-en-1-ylcarbamoyl)pentan-2-yl]carbamoyl}imidazolidin-1-yl]-3-methyl-1-oxobutan-2-yl]carbamoyl}-2-methylpropyl]carbamoyl}-4-oxobutyl]carbamoyl}-4-acetamidobutanoate] | 4.52
11 | C=CCNC(=O)C(=O)C(CCC)NC(=O)[C@@H]1CN(Cc2ccccc2)C(=O)N1C(=O)[C@@H](NC(=O)[C@@H](NC(=O)[C@H](CCC(=O)OC(C)(C)C)NC(=O)[C@H](CCC(=O)OC(C)(C)C)NC(C)=O)C(C)C)C(C)C (stereo partly drawn) [tert-butyl (4S)-4-{[(1S)-1-{[(1S)-1-{[(2S)-1-[(5S)-3-benzyl-2-oxo-5-{[1-oxo-1-(prop-2-en-1-ylcarbamoyl)pentan-2-yl]carbamoyl}imidazolidin-1-yl]-3-methyl-1-oxobutan-2-yl]carbamoyl}-2-methylpropyl]carbamoyl}-4-(tert-butoxy)-4-oxobutyl]carbamoyl}-4-acetamidobutanoate] | 4.21
